Read-outs that look alike come from different tables or passages of the source.

For experiment [1], the system named is NIH/3T3 BTK C481S cells. In words: Phosphor-BTK(Y223) assay, adherent cells. In kind it is cell-based. To be noted: read-out: NIH/3T3 BTK-C481S pBTK. Put shortly: (§1)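 NIH/3T3 cells expressing WT or C481S BTK were pretreated with compound for 0.5 h at 37 °C, then stimulated with 1 mM Na3VO4 (final) for 2 h. Lysates were assayed by HTRF for p-BTK Y223 using the 665/620 nm ratio. IC50 was obtained by nonlinear fit of % inhibition versus 0.5% DMSO control.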

Experiment [2] concerns NIH/3T3 BTK WT cells. As to the kind of experiment: Phosphor-BTK(Y223) assay, adherent cells. The following applies: read-out: NIH/3T3 BTK-WT pBTK. In kind it is cell-based. Put shortly: as §1
[3] abbreviates: Mus musculus, NIH3T3, phosphorylated BTK Y223, NIH/3T3 BTK C481S cells.
Where [4] appears, read: Mus musculus, NIH3T3, phosphorylated BTK Y223, NIH/3T3 BTK WT cells.

In the case of `COc1ccc(F)cc1C(=O)NCc1ccc(-c2ncc(-c3nccn4nccc34)c3[nH]nc(N)c23)cc1` [Example 98, N-(4-(3-amino-7-(pyrazolo[1,5-a]pyrazin-4-yl)-1H-pyrazolo[4,3-c]pyridin-4-yl)benzyl)-5-fluoro-2-methoxybenzamide], the IC50 in experiment [1] (setting [3]) and in experiment [2] (setting [4]) was ≤ 5 nM throughout.
Regarding `COc1ccc(F)cc1C(=O)NCc1ccc(-c2ncc(-c3nc4ccccc4s3)c3[nH]nc(N)c23)cc1` [Example 99, N-(4-(3-amino-7-(benzo[d]thiazol-2-yl)-1H-pyrazolo[4,3-c]pyridin-4-yl)benzyl)-5-fluoro-2-methoxybenzamide], the figures for the IC50 in experiment [1] (setting [3]) and in experiment [2] (setting [4]) were 5 to 10 nM and ≤ 5 nM, respectively.
As to `COc1ccc(F)cc1C(=O)NCc1ccc(-c2ncc(-c3nc4cccnc4s3)c3[nH]nc(N)c23)cc1` [Example 100, N-(4-(3-amino-7-(thiazolo[5,4-b]pyridin-2-yl)-1H-pyrazolo[4,3-c]pyridin-4-yl)benzyl)-5-fluoro-2-methoxybenzamide], the IC50 in experiment [1] (setting [3]) was 5 to 10 nM; in experiment [2] (setting [4]), ≤ 5 nM.
Regarding `CCN1CCc2nc(-c3cnc(-c4ccc(CNC(=O)c5cc(F)ccc5OC)cc4)c4c(N)n[nH]c34)sc2C1` [Example 101, N-(4-(3-amino-7-(5-ethyl-4,5,6,7-tetrahydrothiazolo[5,4-c]pyridin-2-yl)-1H-pyrazolo[4,3-c]pyridin-4-yl)benzyl)-5-fluoro-2-methoxybenzamide], the IC50 in experiment [1] (setting [3]) and in experiment [2] (setting [4]) was ≤ 5 nM in each case.
Take `COc1ccc(F)cc1C(=O)NCc1ccc(-c2ncc(-c3ccc4c(n3)nc3n4CCOC3)c3[nH]nc(N)c23)cc1` [Example 102, N-(4-(3-amino-7-(6,7-dihydro-9H-pyrido[2',3':4,5]imidazo[2,1-c][1,4]oxazin-2-yl)-1H-pyrazolo[4,3-c]pyridin-4-yl)benzyl)-5-fluoro-2-methoxybenzamide]: the IC50 in experiment [1] (setting [3]) and in experiment [2] (setting [4]) was 10 to 50 nM throughout.
Regarding `COc1ccc(F)cc1C(=O)NCc1ccc(-c2ncc(-c3ccc4c(n3)nc3n4C(C)COC3)c3[nH]nc(N)c23)cc1` (stereo not shown) [Example 103, N-(4-(3-amino-7-(6-methyl-6,7-dihydro-9H-pyrido[2',3':4,5]imidazo[2,1-c][1,4]oxazin-2-yl)-1H-pyrazolo[4,3-c]pyridin-4-yl)benzyl)-5-fluoro-2-methoxybenzamide], the IC50 in experiment [1] (setting [3]) lay within 10 to 50 nM; in experiment [2] (setting [4]), 5 to 10 nM.
The like results for `COc1ccc(F)cc1C(=O)NCc1ccc(-c2ncc(-c3cccnc3)c3[nH]nc(N)c23)cc1` [Example 105, N-(4-(3-amino-7-(pyridin-3-yl)-1H-pyrazolo[4,3-c]pyridin-4-yl)benzyl)-5-fluoro-2-methoxybenzamide] were, in that order, > 50 nM and > 50 nM.
The like results for `COc1ccc(F)cc1C(=O)NCc1ccc(-c2ncc(-c3ccncc3)c3[nH]nc(N)c23)cc1` [Example 106, N-(4-(3-amino-7-(pyridin-4-yl)-1H-pyrazolo[4,3-c]pyridin-4-yl)benzyl)-5-fluoro-2-methoxybenzamide] were, in that order, > 50 nM and > 50 nM.
Take `COc1ccc(F)cc1C(=O)NCc1ccc(-c2nc(C3CCOCC3)cc3[nH]nc(N)c23)cc1` [Example 115, N-(4-(3-amino-6-(tetrahydro-2H-pyran-4-yl)-1H-pyrazolo[4,3-c]pyridin-4-yl)benzyl)-5-fluoro-2-methoxybenzamide]: the IC50 in experiment [1] (setting [3]) is 5 to 10 nM; in experiment [2] (setting [4]) it was ≤ 5 nM.
The matching figures for `COc1ccc(F)cc1C(=O)NCc1ccc(-c2nc([C@H]3CC[C@H](CO)CC3)cc3[nH]nc(N)c23)cc1` [Example 117, N-(4-(3-amino-6-((1r,4r)-4-(hydroxymethyl)cyclohexyl)-1H-pyrazolo[4,3-c]pyridin-4-yl)benzyl)-5-fluoro-2-methoxybenzamide]: 10 to 50 nM and 10 to 50 nM.
For the compound “N-(4-(3-amino-7-(1-(difluoromethyl)-1H-pyrazol-3-yl)-1H-pyrazolo[4,3-c]pyridin-4-yl)benzyl)-5-fluoro-2-methoxybenzamide [Example 29]”, the IC50 was 5 to 10 nM in experiment [1] (phosphorylated BTK Y223, NIH/3T3 BTK C481S cells) and ≤ 5 nM in experiment [2] (phosphorylated BTK Y223, NIH/3T3 BTK WT cells).

The record behind these values is patent EP4741392A1, “1H-PYRAZOLO[4,3-C]PYRIDINE COMPOUND, AND COMPOSITION THEREOF AND USE THEREOF” (Shenzhen TargetRx Co., Ltd., priority 2023, dated 2025).
